The values that follow come from paper PMC10609114, “Melittin-Related Peptides Interfere with Sandfly Fever Naples Virus Infection by Interacting with Heparan Sulphate” (Microorganisms, 2023).

Peptide text beside a SMILES is read from it.

Data set [1] concerns SFNV. Put plainly: Heparin assay: neutralization of SFNV infection by heparin. It counts as cell-based, sandfly fever Naples virus. To be noted: Vero cells, heparin 266.7 to 0.26 μM with SFNV (200 TCID50/mL) 1 h at 37 °C, CPE after 5 days. As to the method:
To analyze if heparin could neutralize the virus binding to cells, Vero were infected with SFNV (200 TCID50/mL) and simultaneously treated with serial heparin dilutions (1.56, […], 25, 100, 400, and 1600 μg/mL) for 1 h at 37 °C. Then, the cell monolayer was washed with medium and incubated in the presence of DMEM 5% FBS for 5 days until the CPE appeared. To analyze the simultaneous effect of heparin and each peptide against SFNV infection, a standard concentration of RV-23 or AR-23 (10 μM) was incubated together with the same above-mentioned heparin concentrations. At the same time, the virus (200 TCID50/mL) was added to cell monolayer and subsequently incubated for 1 h at 37 °C. The infection was observed after 5 days infection via CPE.
Phleboviruses use GAGs for the viral entry, including heparin and heparan sulphate (HS). […] Different concentrations of heparin were incubated with the virus during the adsorption phase, and after 5 days of infection, the CPE was analyzed (Figure 3A).
Figure 3 Heparin assay. […] Serial heparin concentrations were incubated with the virus and each peptide […] on Vero cells, and after 5 days of infection, CPE was analyzed by crystal violet staining. […]

In data set [2] the test system is Vero cells. Put plainly: Cytotoxicity assay (MTT). The class given is cell-based. To be noted: 24 h at 37 °C, peptide 50 to 3.125 μM, triplicate. How it is done: Confluent Vero cells were treated with twofold serial dilutions of each peptide (50, 25, 12.5, 6.25, 3.125 μM). The 96-well plates were incubated at 37 °C/5% CO2 for 24 h; then, cell viability was analyzed by the 3-(4,5-Dimethylthiazol-2-yl)-2,5-Diphenyltetrazolium Bromide (MTT, Sigma-Aldrich, St. Louis, MO, USA) assay based on the reduction of the yellowish MTT to dark blue formazan salts. In brief, at the end of incubation, 100 μL of MTT solution (5 mg/mL) was incubated in each well for 3 h at 37 °C. Supernatant was removed and 100 μL of DMSO 100% (Sigma Aldrich) was added to dissolve formazan. Cytotoxicity was evaluated by spectrophotometric reading at 540 nm. Cell viability was calculated as a percentage of control cells. All experiments were performed in triplicate and means and standard deviations were reported. Nonlinear regression analysis was performed using GraphPad Prism software (version 8.0.1) to extract the CC50.
A preliminary experiment was carried out to evaluate the maximal non-cytotoxic concentration of RV-23 and AR-23. Twofold serial dilutions of each peptide were incubated with Vero cells for 24 h at 37 °C.
Figure 1 Cytotoxicity analysis after RV-23 and AR-23 treatment. Vero cells were treated with each peptide in the range of concentrations from 50 to 3.125 μM. After 24 h, MTT assay was carried out. Cell viability was calculated as a percentage of control cells. […]

Data set [3] deals with SFNV. Put plainly: Antiviral virus pre-treatment assay (CPE, crystal violet). The class given is cell-based, sandfly fever Naples virus. To be noted: peptide incubated with SFNV 1 h at 37 °C, mixture titrated on Vero cells, CPE after 5 days; read-out: inhibitory concentration of 50% (IC50), virus pre-treatment. As to the method: (§1) To analyze whether peptides were endowed with antiviral activity against SFNV, and, specifically, what stage of the infection was affected, different experimental procedures were carried out: (i) co-treatment assay: the cells (5 × 10^5/mL) were incubated with each peptide (at non-cytotoxic concentrations) and infected with the virus (200 TCID50/mL) at the same time (1 h at 37 °C); (ii) virus pre-treatment assay: […] and the mixture was subsequently titrated on cells; (iii) cell pre-treatment assay: cells were previously incubated with the peptide and then infected (1 h at 37 °C); (iv) post-treatment assay: peptide was incubated with the cells after the viral adsorption step (1 h at 37 °C). Following the incubation, the cell monolayer was rinsed three times with medium and than supplemented with DMEM 5% FBS. After 5 days post-infection, cythopathic effect (CPE) was observed and cells were stained with 0.5% crystal violet. All experiments were performed in triplicate. The inhibition rate of the infectivity was evaluated by CPE observed in the wells treated with the peptides to CPE in positive control (cells infected with virus, without peptide).
(§2) The difference between the assays was the timing of incubation of peptides on the cell monolayer. […]

In data set [4] the test system is SFNV. Put plainly: Antiviral co-treatment assay (CPE, crystal violet). It counts as cell-based, sandfly fever Naples virus. To be noted: Vero cells, peptide and SFNV (200 TCID50/mL) added together 1 h at 37 °C, CPE after 5 days; read-out: inhibitory concentration of 50% (IC50), co-treatment. How it is done:
as §1, §2

heparin: the “Inhibition of SFNV infection by heparin” value in data set [1] is given as “strongly blocked the viral infection up to 4.2 μM”.
Turning to `CC[C@H](C)[C@H](NC(=O)[C@@H](N)CCCNC(=N)N)C(=O)NCC(=O)N[C@H](C(=O)N[C@@H](CC(C)C)C(=O)N[C@@H](CC(C)C)C(=O)N[C@@H](C)C(=O)N[C@@H](CCCNC(=N)N)C(=O)N[C@@H](CC(C)C)C(=O)N1CCC[C@H]1C(=O)N[C@@H](CCCCN)C(=O)N[C@@H](CC(C)C)C(=O)N[C@@H](Cc1ccccc1)C(=O)N[C@@H](CO)C(=O)N[C@@H](CC(C)C)C(=O)N[C@@H](Cc1ccccc1)C(=O)N[C@@H](CCCCN)C(=O)N[C@@H](CC(C)C)C(=O)N[C@@H](CCSC)C(=O)NCC(=O)N[C@@H](CCCCN)C(=O)N[C@@H](CCCCN)C(=O)N[C@H](C(N)=O)C(C)C)C(C)C` [RV-23] (H-RIGVLLARLPKLFSLFKLMGKKV-NH2), the “Cytotoxicity (cell viability) in words” value in data set [2] is on record as “not cytotoxic up to the highest dose”. Further, the figures for the IC50 in data set [3] and in data set [4] were 6.25 µM and 10 µM, respectively.
In the same order, the values of `CC[C@H](C)[C@H](NC(=O)[C@H](C)N)C(=O)NCC(=O)N[C@@H](CO)C(=O)N[C@H](C(=O)N[C@@H](CC(C)C)C(=O)NCC(=O)N[C@@H](C)C(=O)N[C@@H](CC(C)C)C(=O)N[C@@H](C)C(=O)N[C@@H](CCCCN)C(=O)NCC(=O)N[C@@H](CC(C)C)C(=O)N1CCC[C@H]1C(=O)N[C@H](C(=O)N[C@@H](CC(C)C)C(=O)N[C@H](C(=O)N[C@@H](CO)C(=O)N[C@@H](Cc1c[nH]c2ccccc12)C(=O)N[C@H](C(=O)N[C@@H](CCCCN)C(=O)N[C@@H](CC(N)=O)C(=O)N[C@@H](CCCNC(=N)N)C(N)=O)[C@@H](C)CC)[C@@H](C)CC)[C@@H](C)O)[C@@H](C)CC` [AR-23] (H-AIGSILGALAKGLPTLISWIKNR-NH2) are “consistently affected cell viability at 50 μM”, 10 µM and 12.5 µM.
